For 27 molecules, IC50, inhibition and Kb results are on record in US20260070922A1, “PYRAZOLE AND IMIDAZOLE DERIVATIVES AS DUAL OREXIN AND KAPPA-OPIOID RECEPTORS MODULATORS COMPOSITION, METHODS FOR TREATING NEUROLOGICAL AND PSYCHIATRIC DISORDERS” (HAGER BIOSCIENCES, LLC, priority 2022, published 2026).

Assay [1] concerns the target T1, Orexin type 1 (OX1R) receptor (Homo sapiens, UniProt O43613).
T1 construct: expressed in transfected cells; host or cells: CHO cells (G418 selection)
T1 sequence (O43613 1-425): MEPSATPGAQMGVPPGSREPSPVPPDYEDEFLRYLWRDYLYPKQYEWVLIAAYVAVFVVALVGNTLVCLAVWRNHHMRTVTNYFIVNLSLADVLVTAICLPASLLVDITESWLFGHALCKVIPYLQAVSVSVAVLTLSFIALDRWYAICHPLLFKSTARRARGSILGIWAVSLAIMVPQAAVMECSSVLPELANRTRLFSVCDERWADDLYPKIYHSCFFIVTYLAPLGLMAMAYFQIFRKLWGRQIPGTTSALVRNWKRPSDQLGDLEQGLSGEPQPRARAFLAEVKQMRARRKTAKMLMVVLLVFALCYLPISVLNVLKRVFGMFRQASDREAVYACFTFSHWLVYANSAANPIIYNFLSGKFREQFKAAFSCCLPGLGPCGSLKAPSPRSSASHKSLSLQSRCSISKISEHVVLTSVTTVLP
The assay can be described thus: In vitro orexin antagonism assay: intracellular calcium measurement (FLIPR), orexin-A 3 nM as agonist. The following applies: for IC50: first value of IC50/Kb cell; for inhibition at 1 µM: read-out: OX1R, % Inh. @ 1 uM; for Kb: second value of IC50/Kb cell. Type of assay: cell-based. The protocol:
(§1) In Vitro Orexin Antagonism Measurement Assay: Intracellular Calcium Measurements:
(§2) Chinese hamster ovary (CHO) cells expressing the human […] and the human orexin-2 receptor, respectively, are grown in culture medium (Ham F-12 with L-Glutamine) containing 300 μg/mL G418, 100 U/mL penicillin, 100 μg/mL streptomycin and 10% heat inactivated fetal calf serum (FCS). The cells are seeded at 20,000 cells/well into 384-well black clear bottom sterile plates (Greiner). The seeded plates are incubated overnight at 37° C. in 5% 002. Human orexin-A as an agonist is prepared as 1 mM stock solution in MeOH: water (1:1), diluted in HBSS containing 0.1% bovine serum albumin (BSA), NaHCO3: 0.375 g/L and 20 mM HEPES for use in the assay at a final concentration of 3 nM.
(§3) Antagonists are prepared as 10 mM stock solution in DMSO, then diluted in 384-well plates using DMSO followed by a transfer of the dilutions into in HBSS containing 0.1% bovine serum albumin (BSA), NaHCO3: 0.375 g/L and 20 mM HEPES. On the day of the assay, 50 μL of staining buffer (HBSS containing 1% FCS, 20 mM HEPES, NaHCO3: 0.375 g/L, 5 mM probenecid (Sigma) and 3 μM of the fluorescent calcium indicator fluo-4 AM (1 mM stock solution in DMSO, containing 10% pluronic) is added to each well. The 384-well cell-plates are incubated for 50 min at 37° C. in 5% CO2 followed by equilibration at RT for 30 min before measurement.
(§4) Within the Fluorescent Imaging Plate Reader (FLIPR Tetra, Molecular Devices), antagonists are added to the plate in a volume of 10 μL/well, incubated for 120 min and finally 10 μL/well of agonist is added. Fluorescence is measured for each well at 1 second intervals, and the height of each fluorescence peak is compared to the height of the fluorescence peak induced by 3 nM orexin-A with vehicle in place of antagonist. The IC50 value (the concentration of compound needed to inhibit 50% of the agonistic response) is determined and may be normalized using the obtained IC50 value of an on-plate reference compound. Optimized conditions were achieved by adjustment of pipetting speed and cell splitting regime. The calculated IC50values may fluctuate depending on the daily cellular assay performance. Fluctuations of this kind are known to those skilled in the art.
In general terms: Calcium flux is commonly read through the fluorescence of an indicator in the cells.

Assay [2] has as its target T2, human orexin-2 receptor (OX2R) (Homo sapiens, UniProt O43614).
T2 construct: expressed in transfected cells; host or cells: CHO cells (G418 selection)
T2 sequence (O43614 1-444): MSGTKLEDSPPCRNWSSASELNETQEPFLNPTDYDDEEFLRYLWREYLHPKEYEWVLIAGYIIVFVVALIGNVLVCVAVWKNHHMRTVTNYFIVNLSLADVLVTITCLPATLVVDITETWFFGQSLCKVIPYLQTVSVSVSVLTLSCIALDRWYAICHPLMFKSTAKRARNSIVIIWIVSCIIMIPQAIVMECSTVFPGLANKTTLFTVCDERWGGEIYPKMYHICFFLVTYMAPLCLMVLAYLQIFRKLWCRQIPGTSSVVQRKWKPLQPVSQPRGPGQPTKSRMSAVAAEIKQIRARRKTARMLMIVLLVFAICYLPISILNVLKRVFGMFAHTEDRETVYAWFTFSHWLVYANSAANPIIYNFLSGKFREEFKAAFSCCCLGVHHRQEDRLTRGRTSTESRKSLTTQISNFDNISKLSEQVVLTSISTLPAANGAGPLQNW
The assay is described as above. The class given is cell-based. Conditions: for inhibition at 1 µM: read-out: OX2R, % Inh. @ 1 uM; for IC50: first value of IC50/Kb cell; for Kb: second value of IC50/Kb cell. The protocol:
Antagonistic activities on both orexin receptors have been measured for each example compound using the following procedure:
as §1, §2, §3
as §4, with “art. In the case where IC50values have been determined several times for the same compound, the geometric mean has been given.” for “art.”

As a reminder, the IC50 is the point on the concentration scale where inhibition reaches its midpoint. A word on the Kb: it is the equilibrium dissociation constant of an antagonist, usually derived from a functional assay. For the molecule `O=C(c1c(-c2ccc(F)cc2)nn2c1COCC2)N1CCC[C@H]1Cn1ccc(-c2ccc(F)cc2)n1` [Example 54], in assay [1], the IC50 is 0.122 µM, the inhibition at 1 µM is 98% and the Kb came to 0.026 µM. The inhibition at 1 µM in assay [2] stood at 45.1%.
With `O=C(c1c(-c2ccccc2F)nn2c1COCC2)N1CCC[C@H]1Cn1ccc(-c2ccccn2)n1` [Example 70], in assay [1], the IC50 was 0.12 µM, the inhibition at 1 µM was determined as 60% and the Kb turned out to be 0.025 µM. In assay [2], the inhibition at 1 µM stood at 35%.
With `O=C(c1c(-c2ccccc2F)nn2c1COCC2)N1CCC[C@H]1Cn1cc(-c2ccccn2)cn1` [Example 71], the inhibition at 1 µM in assay [1] turned out to be 14%; in assay [2], 40%.
Turning to `O=C(c1c(-c2ccccc2F)nn2c1COCC2)N1CCC[C@H]1Cn1cc(-c2ccccc2)cn1` [Example 72], in assay [1], the IC50 amounted to 0.62 µM, the inhibition at 1 µM is 64% and the Kb worked out at 0.013 µM. The inhibition at 1 µM in assay [2] is 45%.
In the case of `O=C(c1c(-c2ccccc2)nc2ccc(F)cn12)N1CCC[C@H]1Cn1cc(-c2ccccn2)cn1` [Example 74], the inhibition at 1 µM in assay [1] is 40%; in assay [2], 45%.
For `O=C(c1c(-c2ccccc2)nn2c1COCC2)N1CCC[C@H]1Cn1ccc(-c2ccccn2)n1` [Example 76] the same measures were 46% and 25%.
For `O=C(c1c(-c2ccccc2)nn2c1COCC2)N1CCC[C@H]1Cn1cc(-c2ccccn2)cn1` [Example 77] the same measures were 22% and 23%.
Regarding `O=C(c1c(-c2ccccc2)nc2cc(C(F)(F)F)ccn12)N1CCC[C@H]1Cn1cc(-c2ccccn2)cn1` [Example 79], the inhibition at 1 µM in assay [1] amounted to 43%. In addition, in assay [2], the IC50 came out at 0.077 µM, the inhibition at 1 µM turned out to be 62% and the Kb was determined as 0.013 µM.
In the case of `O=C(c1c(-c2ccccc2)nc2cc(C(F)(F)F)ccn12)N1CCC[C@H]1Cn1cc(-c2ccc(F)cn2)cn1` [Example 81], in assay [1], the IC50 was 0.4 µM, the inhibition at 1 µM was found to be 58% and the Kb worked out at 0.084 µM. In assay [2], the IC50 was found to be 0.07 µM, the inhibition at 1 µM was determined as 63% and the Kb came out at 0.012 µM.
For the molecule `O=C(c1c(-c2ccccc2F)nn2c1COCC2)N1CCC[C@H]1Cn1cc(-c2ccc(F)cn2)cn1` [Example 83], the inhibition at 1 µM came out at 17% in assay [1] and 39% in assay [2].
On to `O=C(c1c(-c2ccccc2)nc2ccc(F)cn12)N1CCC[C@H]1Cn1cc(-c2ccc(F)cn2)cn1` [Example 84], for which the inhibition at 1 µM in assay [1] turned out to be 32%. In assay [2], the IC50 came out at 0.4 µM, the inhibition at 1 µM was found to be 58% and the Kb turned out to be 0.07 µM.
Consider `O=C(c1c(-c2ccccc2)nn2c1COCC2)N1CCC[C@H]1Cn1cc(-c2ccc(F)cn2)cn1` [Example 85], for which the inhibition at 1 µM in assay [1] worked out at 19%; in assay [2] it was 35%.
Take `O=C(c1c(-c2ccccc2)nn2c1COCC2)N1CCC[C@H]1Cn1cc(-c2ccccc2)cn1` [Example 86]: in assay [1], the IC50 is 1.3 µM, the inhibition at 1 µM stood at 56% and the Kb came out at 0.28 µM. The inhibition at 1 µM in assay [2] turned out to be 42%.
For `O=C(c1c(-c2ccccc2F)nn2c1COCC2)N1CCC[C@H]1Cn1ccc(-c2ccc(F)cn2)n1` [Example 91] the same measures were 0.54 µM, 58%, 0.11 µM and 38%.
In the case of `O=C(c1c(-c2ccccc2)nn2c1COCC2)N1CCC[C@H]1Cn1ccc(-c2ccc(F)cn2)n1` [Example 93], the figures for the inhibition at 1 µM in assay [1] and in assay [2] were 41% and 36%, respectively.
For `O=C(c1c(-c2ccccc2F)nn2c1COCC2)N1[C@H](Cn2ccc(-c3ccc(F)cc3)n2)C[C@@H]2C[C@@H]21` [Example 96] the same measures were 44% and 22%.
For `O=C(c1c(-c2ccccc2)nc2cc(C(F)(F)F)ccn12)N1[C@H](Cn2ccc(-c3ccc(F)cc3)n2)C[C@@H]2C[C@@H]21` [Example 98], the inhibition at 1 µM worked out at 48% in assay [1] and 35% in assay [2].
In the case of `O=C(c1c(-c2ccccc2F)nn2ccccc12)N1CC[C@H]1Cn1ccc(-c2ccc(F)cc2)n1` [Example 99], in assay [1], the IC50 came to 0.44 µM, the inhibition at 1 µM is 59% and the Kb worked out at 0.092 µM. Further, in assay [2], the concentration for half-maximal inhibition (IC50) is 0.27 µM, the inhibition at 1 µM was 61% and the Kb stood at 0.046 µM.
Take `O=C(c1c(-c2ccccc2F)nn2c1COCC2)N1CC[C@H]1Cn1ccc(-c2ccc(F)cc2)n1` [Example 100]: the inhibition at 1 µM in assay [1] is -2%; in assay [2], 19%.
For `O=C(c1c(-c2ccccc2)nc2ccc(F)cn12)N1CC[C@H]1Cn1ccc(-c2ccc(F)cc2)n1` [Example 101] the same measures were 25% and 47%.
Take `O=C(c1c(-c2ccccc2)nc2cc(C(F)(F)F)ccn12)N1CC[C@H]1Cn1ccc(-c2ccc(F)cc2)n1` [Example 102]: the inhibition at 1 µM in assay [1] is 31%. Also, in assay [2], the IC50 is 0.66 µM, the inhibition at 1 µM turned out to be 60% and the Kb is 0.11 µM.
As for `O=C(c1c(-c2ccccc2F)nn2ccccc12)N1CC[C@H]1Cn1ccc(-c2ccc(F)cn2)n1` [Example 103], the inhibition at 1 µM was 24% in assay [1] and 43% in assay [2].
Turning to `O=C(c1c(-c2ccccc2F)nn2c1COCC2)N1CC[C@H]1Cn1ccc(-c2ccc(F)cn2)n1` [Example 104], the inhibition at 1 µM was 8% in assay [1] and 14% in assay [2].
For `O=C(c1c(-c2ccccc2)nc2ccc(F)cn12)N1CC[C@H]1Cn1ccc(-c2ccc(F)cn2)n1` [Example 105] the same measures were 5% and 29%.
Regarding `O=C(c1c(-c2ccccc2)nc2cc(C(F)(F)F)ccn12)N1CC[C@H]1Cn1ccc(-c2ccc(F)cn2)n1` [Example 106], the inhibition at 1 µM turned out to be 19% in assay [1] and 39% in assay [2].
For the molecule `O=C(c1c(-c2ccccc2F)nn2c1COCC2)N1[C@H](Cn2ccc(-c3ccc(F)cn3)n2)C[C@@H]2C[C@@H]21` [Example 108], the results for the inhibition at 1 µM in assay [1] and in assay [2] were 23% and 17%, respectively.
For `O=C(c1c(-c2ccccc2)nc2ccc(F)cn12)N1[C@H](Cn2ccc(-c3ccc(F)cn3)n2)C[C@@H]2C[C@@H]21` [Example 109] the same measures were 45% and 32%.
